Data reported in patent US8211945B2, “Carba-sugar amine derivative and glycolipid metabolic disorder treating agent containing the same as active ingredient” (Seikagaku Corporation, priority 2001, dated 2012).

How the values were obtained:
[1] = Safety observation during 1 week oral administration test in mice; settings: about 1.4 mg per day orally
Protocol: That is, tap water containing 1 mM (about 0.28 mg/ml) of the substance 18 of the present invention was continuously administered for 1 week as drinking water to recombinant mice (3 month-old) prepared by transferring a human mutant β-galactosidase gene R201C into β-galactosidase deficient knockout mice. One week thereafter, the mice were sacrificed to excise the cerebrum, the cerebellum, the heart, the lungs, the liver, the spleen, the kidney, a muscle (femoral muscle) and plasma. Also, tail tissues were used for the purpose of verifying changes in the β-galactosidase activity in the same individual before and after the administration. Each organ was crushed under ice-cooling using a homogenizer, and then the suspension of crushed cells was centrifuged at 8,000×g for 30 minutes. Thereafter, the supernatant fraction was recovered and used as an enzyme solution. The amount of protein in this enzyme solution was measured by the Bradford method, and the β-galactosidase activity was measured. With regard to the measurement of β-galactosidase activity, the enzyme activity during 30 minutes was measured at 37° C. using 4-methylumbelliferyl-β-D-galactopyranoside as the fluorogenic substrate. […] Three animals were used in each group to calculate the mean value.

[2] = molecular target: T1, human normal β-galactosidase (GP8) (Homo sapiens, UniProt P16278); assay: Galactosidase inhibitory activity, enzyme from culture supernatant, 4-methylumbelliferyl-β-D-galactopyranoside substrate; assay type: biochemical; set-up: made in house; host or cells: SV40-immortalized β-galactosidase knockout mouse skin fibroblasts; Enzyme source was the supernatant after 24 h in NH4Cl medium, dialyzed and concentrated; settings: 30 minutes
T1 sequence (P16278 29-677): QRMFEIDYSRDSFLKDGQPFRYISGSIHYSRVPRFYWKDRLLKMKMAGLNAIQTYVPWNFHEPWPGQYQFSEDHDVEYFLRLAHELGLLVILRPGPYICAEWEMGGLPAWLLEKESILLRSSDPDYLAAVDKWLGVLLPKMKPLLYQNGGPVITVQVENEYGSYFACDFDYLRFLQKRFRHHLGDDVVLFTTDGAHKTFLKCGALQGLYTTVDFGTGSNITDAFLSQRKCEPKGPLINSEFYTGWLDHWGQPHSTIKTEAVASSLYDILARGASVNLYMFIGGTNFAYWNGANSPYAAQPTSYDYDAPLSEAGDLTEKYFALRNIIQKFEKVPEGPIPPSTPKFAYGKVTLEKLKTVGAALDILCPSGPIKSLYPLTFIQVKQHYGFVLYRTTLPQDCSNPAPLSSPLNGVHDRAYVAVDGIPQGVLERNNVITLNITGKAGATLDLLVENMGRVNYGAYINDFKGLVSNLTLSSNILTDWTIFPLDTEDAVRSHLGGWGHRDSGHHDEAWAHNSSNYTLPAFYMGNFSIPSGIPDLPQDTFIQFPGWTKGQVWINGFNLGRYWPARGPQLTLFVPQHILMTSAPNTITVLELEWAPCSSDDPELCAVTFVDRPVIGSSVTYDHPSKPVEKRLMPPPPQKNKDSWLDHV
Protocol: Knockout mouse skin fibroblast introduced with a human normal β-galactosidase (GP8) cDNA (Biochem. Biophys. Res. Commun., 157(1), 238-244, 1988) and immortalized with an SV40 viral gene were cultured at 37° C. in an atmosphere of 5% CO2, using Dulbecco's modified Eagle's medium (to be referred to as “DMEM” hereinafter: manufactured by Gibco) containing 10% fetal calf serum (to be referred to as “FCS” hereinafter), and when the cells became 80% confluent, the medium was exchanged with FCS-free DMEM containing 10 mM of NH4Cl. After culturing for 24 hours, the supernatant was recovered and dialyzed against 10 mM phosphate buffer (pH=6.5) for 4 hours. Thereafter, the mixture was concentrated using VIVAPORE-20 (manufactured by Vivapore) and used as the enzyme source. Using 4-methylumbelliferyl-β-D-galactopyranoside as the fluorescent substrate, the enzyme activity during 30 minutes was measured in the presence or absence of the substance to be tested (Table 1). Final concentration of the substance 18 of the present invention was adjusted to 0.05, 0.125, 0.25, 0.5, 1, 2.5 or 5 μM.

With CCCCCCCCN[C@@H]1C=C(CO)[C@H](O)C(O)[C@@H]1O (stereo partly drawn) [Substance 18, N-octyl-5a-carba-α-L-arabino-hexo-5(5a)-enopyranosylamine] the health condition [1] was “health condition was markedly good”, the activity at 0.05 µM ([2]; 0.050 umol/L substance) was 77% and the activity at 0.125 µM ([2]; 0.125 umol/L substance) was 59.5%. For the same compound, the activity at 0.25 µM ([2]; 0.250 umol/L substance) was 43.4%, the activity at 0.5 µM ([2]; 0.500 umol/L substance) was 35.7% and the activity at 1 µM ([2]; 1.000 umol/L substance) was 36%. It also gave an activity at 2.5 µM ([2]; 2.500 umol/L substance) of 18.7% and an activity at 5 µM ([2]; 5.000 umol/L substance) of 14.4%.
